Consider four compounds from paper PMC10709440, “High-throughput ligand profile characterization in novel cell lines expressing seven heterologous insect olfactory receptors for the detection of volatile plant biomarkers” (Scientific Reports, 2023).

In one test the target is T1, Drosophila OR71a (Drosophila melanogaster, UniProt Q9VUK5).
T1 construct: expressed in transfected cells
T1 sequence (Q9VUK5 1-378): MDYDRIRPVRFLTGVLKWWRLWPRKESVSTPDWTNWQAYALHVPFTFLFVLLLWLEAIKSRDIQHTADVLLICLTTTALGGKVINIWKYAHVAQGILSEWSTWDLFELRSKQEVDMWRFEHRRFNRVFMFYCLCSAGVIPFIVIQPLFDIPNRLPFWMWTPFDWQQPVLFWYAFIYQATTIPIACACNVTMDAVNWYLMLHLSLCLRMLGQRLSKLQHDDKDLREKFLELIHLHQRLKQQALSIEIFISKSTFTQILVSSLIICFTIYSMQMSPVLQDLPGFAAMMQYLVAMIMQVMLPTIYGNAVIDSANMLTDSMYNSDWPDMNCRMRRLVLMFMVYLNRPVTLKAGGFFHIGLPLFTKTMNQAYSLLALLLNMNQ
T1 sequence (Q9VNB5 1-486 partner): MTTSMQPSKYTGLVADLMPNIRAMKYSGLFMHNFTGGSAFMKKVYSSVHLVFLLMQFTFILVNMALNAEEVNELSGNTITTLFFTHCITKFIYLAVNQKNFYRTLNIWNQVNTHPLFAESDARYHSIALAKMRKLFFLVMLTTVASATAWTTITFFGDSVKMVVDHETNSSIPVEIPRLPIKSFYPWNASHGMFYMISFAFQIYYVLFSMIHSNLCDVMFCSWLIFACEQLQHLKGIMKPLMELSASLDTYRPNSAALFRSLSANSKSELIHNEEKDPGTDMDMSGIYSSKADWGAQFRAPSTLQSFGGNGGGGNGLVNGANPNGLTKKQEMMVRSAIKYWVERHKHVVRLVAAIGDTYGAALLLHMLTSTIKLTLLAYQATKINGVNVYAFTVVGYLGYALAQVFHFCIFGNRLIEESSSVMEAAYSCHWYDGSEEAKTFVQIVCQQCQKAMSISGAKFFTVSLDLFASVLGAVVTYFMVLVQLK
Nature of the test: Calcium ion fluorescence (GCaMP6) assay, OR71a stable HEK293 cell line. It is filed as cell-based. Particulars: for Average response / OR71a response (VUAA1-normalized) at 1 μM / OR71a response (VUAA1-normalized) at 10 μM / OR71a response (VUAA1-normalized) at 100 μM: OR71a cell line; for Average response: VUAA1-normalized response, mean of biological replicates; for OR71a response (VUAA1-normalized) at 1 μM: VOC concentration 1 μM; for OR71a response (VUAA1-normalized) at 10 μM: VOC concentration 10 μM; for OR71a response (VUAA1-normalized) at 100 μM: VOC concentration 100 μM. The procedure, abridged:
(§1)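 Responses are VUAA1-normalized ΔF: each VOC-evoked calcium signal, (FMAX−F0)/F0 over 30 s after injection, divided by the same line's mean 50 µM VUAA1 response. Cells were doxycycline-induced HEK293 with GCaMP6 and the cognate Drosophila OR, in HEPES buffer pH 7.3; ligands tested 0.01–100 μM.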

Another test deals with T2, Drosophila OR98a (Drosophila melanogaster, UniProt Q9VAZ3).
T2 construct: expressed in transfected cells
T2 sequence (Q9VAZ3 1-397): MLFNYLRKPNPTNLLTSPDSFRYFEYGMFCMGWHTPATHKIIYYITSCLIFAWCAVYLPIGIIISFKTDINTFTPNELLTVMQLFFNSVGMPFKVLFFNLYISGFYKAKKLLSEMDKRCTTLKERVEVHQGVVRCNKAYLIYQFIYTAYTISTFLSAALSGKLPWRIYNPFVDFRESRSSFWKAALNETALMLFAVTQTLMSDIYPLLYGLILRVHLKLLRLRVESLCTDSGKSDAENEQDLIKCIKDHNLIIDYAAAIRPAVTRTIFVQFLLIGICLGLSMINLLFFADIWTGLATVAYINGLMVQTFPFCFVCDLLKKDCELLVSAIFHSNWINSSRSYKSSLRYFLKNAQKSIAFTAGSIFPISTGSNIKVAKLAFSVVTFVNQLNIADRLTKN
T2 sequence (Q9VNB5 1-486 partner): T1 sequence (Q9VNB5 1-486 partner)
Nature of the test: Calcium ion fluorescence (GCaMP6) assay, OR98a stable HEK293 cell line. The class given is cell-based. The note with it: for OR98a response (VUAA1-normalized) at 1 μM / OR98a response (VUAA1-normalized) at 10 μM / OR98a response (VUAA1-normalized) at 100 μM: OR98a cell line; for OR98a response (VUAA1-normalized) at 1 μM: VOC concentration 1 μM; for OR98a response (VUAA1-normalized) at 10 μM: VOC concentration 10 μM; for OR98a response (VUAA1-normalized) at 100 μM: VOC concentration 100 μM. The procedure, abridged:
as §1

The mark [1] stands for this setting: HEK293, read-out: OR71a response (VUAA1-normalized response).
The mark [2] stands for this setting: ligand concentration 1 (unit not given), threshold 0.05, below shown as 0.
The mark [3] stands for this setting: ligand concentration 10 (unit not given), threshold 0.05, below shown as 0.
The mark [4] stands for this setting: ligand concentration 100 (unit not given), threshold 0.05, below shown as 0.
Setting [5] is: HEK293, read-out: Average response.
[6] abbreviates: HEK293, read-out: OR98a response (VUAA1-normalized response).
Setting [7] is: HEK293, read-out: OR98a Average response (VUAA1-normalized).
Setting [8] is: ligand concentration 1 (unit not given), 0.05 threshold, values below shown as 0.
Setting [9] is: ligand concentration 10 (unit not given), 0.05 threshold, values below shown as 0.
Where [10] appears, read: ligand concentration 100 (unit not given), 0.05 threshold, values below shown as 0.

Like-named read-outs stand apart in the source and are kept apart here.

As for `CC1=CC[C@@H](C(C)(C)O)CC1` [alpha-terpineol], the activation at 1 µM at Drosophila OR71a (setting [1]), on Drosophila OR98a (setting [5]) and on Drosophila OR98a (setting [6]) was 0% each time. Besides, the activation at 10 µM turned out to be 0% on Drosophila OR71a (setting [1]), 1.81% at Drosophila OR98a (setting [5]) and 0% on Drosophila OR98a (setting [6]). The activation at 100 µM on Drosophila OR71a (setting [1]) was determined as 0%; on Drosophila OR98a (setting [5]), 6.45%; at Drosophila OR98a (setting [6]) it was 6.45%. Moreover, the Average response on Drosophila OR71a (cc. 1 µM) was found to be 0.00; at Drosophila OR71a (cc. 10 µM), 0.00; on Drosophila OR71a (cc. 100 µM), 0.04. Also, the “DF norm AVERAGE OR71a” value on Drosophila OR71a (setting [2]), at Drosophila OR71a (setting [3]) and at Drosophila OR71a (setting [4]) was 0 throughout. In addition, the figures for the “DF norm AVERAGE OR98a” value at Drosophila OR98a (setting [2]), at Drosophila OR98a (setting [3]) and at Drosophila OR98a (setting [4]) were 0, 0 and 0.06455, respectively.

As to `OCCc1ccccc1` [phenethyl alcohol], the “OR71a response (VUAA1-normalized) at 1 μM” value at Drosophila OR71a is on record as 0.09. In addition, the “OR71a response (VUAA1-normalized) at 10 μM” value at Drosophila OR71a was found to be 0.00. In addition, the “OR71a response (VUAA1-normalized) at 100 μM” value at Drosophila OR71a is 0.00. Further, the Average response at Drosophila OR71a (cc. 1 µM) is recorded as 0.09; on Drosophila OR71a (cc. 10 µM) it was 0.03; at Drosophila OR71a (cc. 100 µM), 0.0218. The “DF norm AVERAGE OR71a” value is 0.08619 at Drosophila OR71a (setting [2]), 0 on Drosophila OR71a (setting [3]) and 0 on Drosophila OR71a (setting [4]). The activation at 1 µM on Drosophila OR98a (setting [5]) and on Drosophila OR98a (setting [7]) was 4% throughout. The activation at 10 µM on Drosophila OR98a (setting [5]) and at Drosophila OR98a (setting [7]) was 5% throughout. For the same compound, the activation at 100 µM on Drosophila OR98a (setting [5]) and at Drosophila OR98a (setting [7]) was 12% throughout. Moreover, the “OR98a response (VUAA1-normalized) at 1 μM” value at Drosophila OR98a was determined as 0.00. In addition, the “OR98a response (VUAA1-normalized) at 10 μM” value at Drosophila OR98a was 0.05. Moreover, the “OR98a response (VUAA1-normalized) at 100 μM” value at Drosophila OR98a is given as 0.12. Besides, the “DF norm AVERAGE OR98a” value on Drosophila OR98a (setting [2]) was determined as 0; at Drosophila OR98a (setting [3]), 0.05123; at Drosophila OR98a (setting [4]) it was 0.122.

Turning to `CC/C=C\CCOC(C)=O` [z3-hexenyl acetate], the Average response on Drosophila OR71a (cc. 1 µM), on Drosophila OR71a (cc. 10 µM) and on Drosophila OR71a (cc. 100 µM) was 0.00 each time. Also, the “DF norm AVERAGE OR71a” value at Drosophila OR71a (setting [8]), at Drosophila OR71a (setting [9]) and at Drosophila OR71a (setting [10]) was 0 each time. Further, the activation at 1 µM on Drosophila OR98a (setting [5]) and on Drosophila OR98a (setting [7]) was 0% in each case. Besides, the activation at 10 µM on Drosophila OR98a (setting [5]) was determined as 1.43%; at Drosophila OR98a (setting [7]), 1%. Also, the activation at 100 µM on Drosophila OR98a (setting [5]) and at Drosophila OR98a (setting [7]) was 10% in each case. In addition, the “DF norm AVERAGE OR98a” value at Drosophila OR98a (setting [8]) is recorded as 0; at Drosophila OR98a (setting [9]), 0; on Drosophila OR98a (setting [10]), 0.1048.

Turning to `Cc1cccc(C)c1` [m-xylene], the “OR71a response (VUAA1-normalized) at 1 μM” value on Drosophila OR71a is listed as 0.00. Moreover, the “OR71a response (VUAA1-normalized) at 10 μM” value at Drosophila OR71a was 0.00. Further, the “OR71a response (VUAA1-normalized) at 100 μM” value on Drosophila OR71a came to 0.00. The Average response on Drosophila OR71a (cc. 1 µM), on Drosophila OR71a (cc. 10 µM) and at Drosophila OR71a (cc. 100 µM) was 0.00 each time. Besides, the “DF norm AVERAGE OR71a” value on Drosophila OR71a (setting [2]), on Drosophila OR71a (setting [3]) and on Drosophila OR71a (setting [4]) was 0 in each case. Further, the activation at 1 µM at Drosophila OR98a (setting [5]) turned out to be 0%. Moreover, the activation at 10 µM on Drosophila OR98a (setting [5]) was found to be 0%. Besides, the activation at 100 µM at Drosophila OR98a (setting [5]) is 2.54%. The “OR98a response (VUAA1-normalized) at 1 μM” value at Drosophila OR98a was 0.00. Besides, the “OR98a response (VUAA1-normalized) at 10 μM” value on Drosophila OR98a is given as 0.00. On Drosophila OR98a, the “OR98a response (VUAA1-normalized) at 100 μM” value stood at 0.00. Further, the “DF norm AVERAGE OR98a” value on Drosophila OR98a (setting [2]), on Drosophila OR98a (setting [3]) and on Drosophila OR98a (setting [4]) was 0 in each case.
